Assay [1] concerns the target T1, Alpha-1D adrenergic receptor (Homo sapiens, UniProt P25100).
T1 sequence (P25100 whole entry): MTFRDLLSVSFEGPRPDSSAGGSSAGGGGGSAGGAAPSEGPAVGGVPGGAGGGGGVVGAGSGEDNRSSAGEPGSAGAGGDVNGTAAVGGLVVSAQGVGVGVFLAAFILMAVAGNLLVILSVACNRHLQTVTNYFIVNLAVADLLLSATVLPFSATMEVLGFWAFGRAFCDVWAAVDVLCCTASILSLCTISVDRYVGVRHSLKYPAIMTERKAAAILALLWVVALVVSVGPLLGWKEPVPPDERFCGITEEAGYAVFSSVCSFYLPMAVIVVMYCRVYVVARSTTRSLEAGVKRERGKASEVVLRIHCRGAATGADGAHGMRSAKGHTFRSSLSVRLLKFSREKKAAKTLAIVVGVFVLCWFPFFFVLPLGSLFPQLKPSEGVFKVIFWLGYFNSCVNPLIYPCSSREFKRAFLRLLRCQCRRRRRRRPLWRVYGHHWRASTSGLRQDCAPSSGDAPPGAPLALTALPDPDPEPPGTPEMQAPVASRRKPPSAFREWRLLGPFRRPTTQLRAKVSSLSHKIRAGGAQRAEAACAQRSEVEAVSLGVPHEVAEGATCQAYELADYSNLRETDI
Put plainly: Displacement of [125I]-HEAT from human Alpha-1D adrenergic receptor expressed in COS cells membranes. The format is cell membranes. Background: Loss of bound radioactivity is the signal in a displacement assay; it reports binding, not function.

The target of assay [2] is T2, Alpha-1B adrenergic receptor (Homo sapiens, UniProt P35368).
T2 sequence (P35368 whole entry): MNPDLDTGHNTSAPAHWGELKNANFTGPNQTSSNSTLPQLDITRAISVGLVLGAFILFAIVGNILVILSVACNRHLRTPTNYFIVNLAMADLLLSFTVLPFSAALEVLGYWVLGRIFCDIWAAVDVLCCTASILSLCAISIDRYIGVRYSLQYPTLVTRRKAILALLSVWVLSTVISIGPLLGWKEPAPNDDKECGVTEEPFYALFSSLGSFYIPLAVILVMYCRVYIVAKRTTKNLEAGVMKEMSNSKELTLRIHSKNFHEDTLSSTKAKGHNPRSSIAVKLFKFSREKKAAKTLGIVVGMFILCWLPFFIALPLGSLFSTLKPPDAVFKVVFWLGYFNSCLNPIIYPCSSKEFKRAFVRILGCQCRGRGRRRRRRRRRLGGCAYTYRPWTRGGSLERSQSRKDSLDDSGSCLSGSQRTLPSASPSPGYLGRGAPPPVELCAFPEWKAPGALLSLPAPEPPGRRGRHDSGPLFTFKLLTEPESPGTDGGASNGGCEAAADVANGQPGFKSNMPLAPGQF
Put plainly: Displacement of [125I]HEAT from COS cells membranes expressing human Alpha-1B adrenergic receptor. The format is cell membranes.

Assay [3] deals with T3, Alpha-1A adrenergic receptor (Homo sapiens, UniProt P35348).
T3 sequence (P35348 whole entry): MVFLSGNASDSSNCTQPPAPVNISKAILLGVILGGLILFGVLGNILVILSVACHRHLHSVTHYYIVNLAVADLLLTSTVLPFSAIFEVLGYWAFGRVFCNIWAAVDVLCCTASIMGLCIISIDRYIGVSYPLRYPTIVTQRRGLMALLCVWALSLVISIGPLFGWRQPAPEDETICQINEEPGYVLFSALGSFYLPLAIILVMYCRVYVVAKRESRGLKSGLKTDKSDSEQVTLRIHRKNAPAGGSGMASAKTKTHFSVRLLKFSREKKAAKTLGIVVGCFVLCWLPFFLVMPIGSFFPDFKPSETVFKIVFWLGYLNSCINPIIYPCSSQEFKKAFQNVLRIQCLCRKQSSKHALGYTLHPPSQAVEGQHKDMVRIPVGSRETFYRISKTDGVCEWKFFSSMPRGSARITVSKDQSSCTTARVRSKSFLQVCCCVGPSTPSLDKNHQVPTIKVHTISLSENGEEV
Put plainly: Displacement of [125I]HEAT from COS cell membranes expressing human Alpha-1A adrenergic receptor.

The target of assay [4] is Adrenergic receptors; alpha-1 A & B (Homo sapiens) (UniProt P35348+P35368). Put plainly: Relative binding to alpha-1b and alpha-1a receptors (ratio of Ki). The format is protein assay.
Assay [5] addresses Alpha adrenergic receptor (1a and 1d) (Homo sapiens) (UniProt P35348+P25100). Put plainly: Relative binding to alpha1d and alpha-1a receptors (ratio of Ki). The format is protein assay.

The structures appear in SMILES notation.

Broadly, the Ki is a dissociation constant, usually derived from enzyme kinetics or from competition with a known ligand. As to `COc1ccccc1N1CCN(Cc2ccc(CN3CCCCCC3=O)s2)CC1`, the Ki in assay [1] was 0.013 µM; in assay [2], over 5 µM; in assay [3] it was 0.018 µM. The results for the Ratio in assay [4] and in assay [5] were over 278 and 0.7, respectively.
Consider `CC(C)Oc1ccccc1N1CCN(Cc2cc(CN3CCCCCC3=O)cs2)CC1`, for which the Ki in assay [1] turned out to be 0.047 µM; in assay [2], 0.615 µM; in assay [3], 0.0018 µM. The Ratio came out at 342 in assay [4] and 26 in assay [5].
On to `COc1ccccc1N1CCN(Cc2ccc(CN3CCCCC3O)s2)CC1` (stereo not given), for which the Ki in assay [1] was 0.13 µM; in assay [2], 2.57 µM; in assay [3] it was 0.419 µM. Further, the results for the Ratio in assay [4] and in assay [5] were 6.1 and 0.3, respectively.
Consider `CC(C)Oc1ccccc1N1CCN(Cc2ccc(CN3CCCCC3=O)s2)CC1`, for which the values for the Ki in assay [1], in assay [2] and in assay [3] were 0.018 µM, 0.413 µM and 0.0003 µM, respectively. Further, the Ratio in assay [4] worked out at 1250; in assay [5] it was 54.
`COC(=O)[C@@H]1CCCN1Cc1ccc(CN2CCN(c3ccccc3OC)CC2)s1`: the Ki in assay [1] worked out at 0.015 µM; in assay [2], 0.592 µM; in assay [3], 0.012 µM. In addition, the Ratio in assay [4] is 49; in assay [5] it was 1.3.
On the same counts, the results for `CC(C)Oc1ccccc1N1CCN(Cc2cc(CN3CCCC3=O)cs2)CC1` are 0.025 µM, 0.259 µM, 0.0002 µM, 1520 and 147.
As to `COc1ccccc1N1CCN(Cc2ccc(CN3CCCCC3=O)s2)CC1`, the inhibition constant (Ki) in assay [1] was 0.012 µM; in assay [2] it was over 5 µM; in assay [3], 0.014 µM. For the same compound, the values for the Ratio in assay [4] and in assay [5] were over 357 and 0.9, respectively.
In the case of `COc1ccccc1N1CCN(Cc2ccc(CN3CCCC3=O)s2)CC1`, the Ki was 0.023 µM in assay [1], over 5 µM in assay [2] and 0.04 µM in assay [3]. Also, the Ratio is over 125 in assay [4] and 0.6 in assay [5].
In the case of `CC(C)Oc1ccccc1N1CCN(Cc2cc(CN3CCCCC3=O)cs2)CC1`, the results for the Ki in assay [1], in assay [2] and in assay [3] were 0.092 µM, 0.384 µM and 0.0005 µM, respectively. Further, the Ratio in assay [4] came out at 769; in assay [5], 184.
With `COc1ccccc1N1CCN(Cc2ccc(C=O)s2)CC1`, the Ki in assay [1] came out at 0.262 µM; in assay [2] it was 1.88 µM; in assay [3], 0.578 µM. In addition, the Ratio stood at 3.2 in assay [4] and 0.4 in assay [5].
Take `CC(C)Oc1ccccc1N1CCN(Cc2cc(CO)cs2)CC1`: the Ki in assay [1] is 0.339 µM; in assay [2] it was over 5 µM; in assay [3], 0.331 µM. The Ratio is over 15 in assay [4] and 1 in assay [5].
As to `COc1ccccc1N1CCN(Cc2ccc(Br)s2)CC1`, the Ki in assay [1] turned out to be 0.092 µM; in assay [2], 0.757 µM; in assay [3], 0.128 µM. Further, the Ratio is 6 in assay [4] and 0.7 in assay [5].
On the same counts, the results for `COc1ccccc1N1CCN(Cc2ccc(CO)s2)CC1` are 0.138 µM, 1.06 µM, 0.202 µM, 5.3 and 0.7.
